The conditions of series [1]: water, alcohol, ether and chloroform; cited from earlier work.
The conditions of series [2]: Federal Register, vol. 47, 12553 (Mar. 23, 1982); cited from earlier work.
The test system of series [3] is patients who presented with psoriatic lesions. The experiment in a line: Topical treatment of psoriasis in outpatients. It is filed as in vivo, human. The following applies: applied as a topical, episodic treatment for psoriasis. Here is the method: Eight patients who presented with psoriatic lesions were treated with the ointment of Example 1 on an outpatient basis. The ointment of Example 1 was applied to the psoriatic lesions up to four times per day.

For the compound `CC(=O)OCC(COC(C)=O)OC(C)=O` [Triacetin, 1,2,3-propanetriol triacetate], the miscibility result in series [1] is “miscible in water, alcohol, ether and chloroform”. Further, the “safety for topical use” value in series [2] is “safe for topical use”. The “effect on psoriatic lesions” value in series [3] was “improve psoriatic lesions”.
`CC(=O)OCC(O)CO` (centres unmarked) [monacetin, glycerol monoacetate]: the miscibility result in series [1] is “miscible in water, alcohol, ether and chloroform”.
Regarding `CC(=O)OCC(CO)OC(C)=O` (centres unmarked) [diacetin, glycerol diacetate], the miscibility result in series [1] was “miscible in water, alcohol, ether and chloroform”.
